US11976072B2, “Diacylglycerol kinase modulating compounds” (priority 2021, dated 2024)

Tests used:
[1] = molecular target: human DGKα (Homo sapiens, UniProt P23743); assay: DGKα Biochemical Activity Assay (ADP-Glo);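 note: luminescent detection of ADP produced as DGKα phosphorylates DAG to phosphatidic acid, IC50 from four-parameter nonlinear curve fit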
[2] = tested on: Jurkat NFκB-luciferase cells; assay: Jurkat NFκB-Luciferase Assay; type: cell-based; conditions: Homo sapiens; Jurkat NFκB-luciferase cells activated with anti-CD3 antibody (OKT3), 2.5 hrs at 37° C.; geometric mean; read-out: DGK NFKb Luciferase EC50
Summary of the method: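 Luminescence from One-Glo Ex, read 7 min post-addition, reports NFκB activation in Jurkat luciferase reporter cells. Cells, diluted to 1 million cells/ml in 10% FBS RPMI, were dispensed onto plates holding compound and washed, pre-bound antibody.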

human DGKα, sequence (P23743 whole entry): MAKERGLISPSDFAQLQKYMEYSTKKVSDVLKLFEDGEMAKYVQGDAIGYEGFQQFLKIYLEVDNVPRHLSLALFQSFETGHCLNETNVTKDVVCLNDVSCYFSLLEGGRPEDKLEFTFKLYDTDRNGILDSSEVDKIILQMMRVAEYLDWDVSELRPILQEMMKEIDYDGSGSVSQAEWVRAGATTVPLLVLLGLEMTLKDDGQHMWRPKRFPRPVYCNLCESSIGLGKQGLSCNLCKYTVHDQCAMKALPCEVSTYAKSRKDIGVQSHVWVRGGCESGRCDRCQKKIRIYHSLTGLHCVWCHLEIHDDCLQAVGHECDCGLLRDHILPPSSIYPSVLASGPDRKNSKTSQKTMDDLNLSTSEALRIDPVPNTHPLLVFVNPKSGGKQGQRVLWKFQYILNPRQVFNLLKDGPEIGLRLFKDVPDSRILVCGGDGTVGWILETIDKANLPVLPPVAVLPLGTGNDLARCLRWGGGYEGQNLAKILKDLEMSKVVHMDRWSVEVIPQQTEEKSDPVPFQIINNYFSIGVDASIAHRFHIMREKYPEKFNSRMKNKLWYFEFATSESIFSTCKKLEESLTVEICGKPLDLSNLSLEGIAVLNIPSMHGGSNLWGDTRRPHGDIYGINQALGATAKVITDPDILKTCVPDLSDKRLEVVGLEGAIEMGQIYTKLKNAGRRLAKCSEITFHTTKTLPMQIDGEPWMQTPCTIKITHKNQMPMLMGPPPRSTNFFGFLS

## Cc1nnc2nc(N3CCN(C)Cc4c(C#CC(C)(C)C#N)cccc43)c3c(F)cccc3n12 [compound 163]
[1]
  IC50: 17.1 nM
[2]
  EC50: 28.4 nM
